{
  "source": "paper PMC11012124",
  "about": "“Synthesis of Novel Triazine-Based Chalcones and 8,9-dihydro-7H-pyrimido[4,5-b][1,4]diazepines as Potential Leads in the Search of Anticancer, Antibacterial and Antifungal Agents” (International Journal of Molecular Sciences, 2024)",
  "key": {"[1]": {"test_system": "N. gonorrhoeae ATCC 49226", "test": "MIC on GC agar plates", "assay_type": "cell-based, Neisseria gonorrhoeae", "details": "Neisseria gonorrhoeae, ATCC49226, read-out: MIC", "in_short": "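N. gonorrhoeae (1 × 10^4 CFU) was spotted onto IsoVitaleX-supplemented (1%) GC agar containing graded compound levels. The lowest inhibitory concentration was recorded as the MIC, with oxidase testing used to verify growth, and each assay was done in duplicate on at least two separate occasions.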"}, "[2]": {"test": "Hemolytic activity, spectrophotometric", "assay_type": "cell-based, human", "details": "human, human red blood cells (huRBC), 5% hematocrit, 200 μg/mL, 37 °C"}, "CCRF-CEM": {"test_system": "CCRF-CEM", "test": "cells", "details": "Homo sapiens, 48 h"}, "HL-60(TB)": {"test_system": "HL-60(TB)", "test": "cells", "details": "Homo sapiens, HL-60, 48 h"}, "K-562": {"test_system": "K-562", "test": "cells", "details": "Homo sapiens, K562, 48 h"}, "SR": {"test_system": "SR", "test": "cells", "details": "Homo sapiens, 48 h"}, "NCI-H460": {"test_system": "NCI-H460", "test": "cells", "details": "Homo sapiens, NCI-H460, 48 h"}, "NCI-H522": {"test_system": "NCI-H522", "test": "cells", "details": "Homo sapiens, NCI-H522, 48 h"}, "KM12": {"test_system": "KM12", "test": "cells", "details": "Homo sapiens, KM12, 48 h"}, "SW-620": {"test_system": "SW-620", "test": "cells", "details": "Homo sapiens, SW-620, 48 h"}, "MALME-3M": {"test_system": "MALME-3M", "test": "cells", "details": "Homo sapiens, 48 h"}, "MDA-MB-435": {"test_system": "MDA-MB-435", "test": "cells", "details": "Homo sapiens, MDA-MB-435, 48 h"}, "SK-MEL-2": {"test_system": "SK-MEL-2", "test": "cells", "details": "Homo sapiens, SK-MEL-2, 48 h"}, "SK-MEL-28": {"test_system": "SK-MEL-28", "test": "cells", "details": "Homo sapiens, SK-MEL-28, 48 h"}, "IGROV1": {"test_system": "IGROV1", "test": "cells", "details": "Homo sapiens, IGROV-1, 48 h"}, "OVCAR-4": {"test_system": "OVCAR-4", "test": "cells", "details": "Homo sapiens, OVCAR-4, 48 h"}, "OVCAR-5": {"test_system": "OVCAR-5", "test": "cells", "details": "Homo sapiens, OVCAR-5, 48 h"}, "OVCAR-8": {"test_system": "OVCAR-8", "test": "cells", "details": "Homo sapiens, OVCAR-8, 48 h"}, "NCI/ADR-RES": {"test_system": "NCI/ADR-RES", "test": "cells", "details": "Homo sapiens, 48 h"}, "SK-OV-3": {"test_system": "SK-OV-3", "test": "cells", "details": "Homo sapiens, SK-OV-3, 48 h"}, "CAKI-1": {"test_system": "CAKI-1", "test": "cells", "details": "Homo sapiens, CAKI-1, 48 h"}, "SN12C": {"test_system": "SN12C", "test": "cells", "details": "Homo sapiens, 48 h"}, "TK-10": {"test_system": "TK-10", "test": "cells", "details": "Homo sapiens, TK-10, 48 h"}, "DU-145": {"test_system": "DU-145", "test": "cells", "details": "Homo sapiens, DU-145, 48 h"}, "MCF7": {"test_system": "MCF7", "test": "cells", "details": "Homo sapiens, MCF7, 48 h"}, "T-47D": {"test_system": "T-47D", "test": "cells", "details": "Homo sapiens, T47D, 48 h"}},
  "data": [
    {"smiles": "Nc1nc(N)c2c(n1)NC(c1ccccc1)CC(c1ccc(Nc3nc(NCCO)nc(Nc4ccc(Cl)cc4)n3)cc1)=N2", "note": "(stereo not drawn) [33a]", "values": [
      {"measurement": "MIC", "setting": "[1]", "value": 1, "unit": "µg/mL"},
      {"measurement": "hemolysis at 24 h, 200 µg/mL", "setting": "[2]", "value": 8, "unit": "%"},
      {"measurement": "GI50", "setting": "CCRF-CEM", "value": 0.95, "unit": "µM"},
      {"measurement": "CC50", "setting": "CCRF-CEM; read-out: LC50", "value": "> 100", "unit": "µM"},
      {"measurement": "GI50", "setting": "HL-60(TB)", "value": 0.32, "unit": "µM"},
      {"measurement": "CC50", "setting": "HL-60(TB); read-out: LC50", "value": "> 100", "unit": "µM"},
      {"measurement": "GI50", "setting": "K-562; K-562, 48 h", "value": 1.01, "unit": "µM"},
      {"measurement": "CC50", "setting": "K-562; read-out: LC50", "value": "> 100", "unit": "µM"},
      {"measurement": "GI50", "setting": "SR", "value": 0.55, "unit": "µM"},
      {"measurement": "GI50", "setting": "NCI-H460", "value": 1.85, "unit": "µM"},
      {"measurement": "CC50", "setting": "NCI-H460; read-out: LC50", "value": 6.51, "unit": "µM"},
      {"measurement": "GI50", "setting": "NCI-H522", "value": 1.79, "unit": "µM"},
      {"measurement": "CC50", "setting": "NCI-H522; read-out: LC50", "value": 6.77, "unit": "µM"},
      {"measurement": "GI50", "setting": "KM12", "value": 1.9, "unit": "µM"},
      {"measurement": "CC50", "setting": "KM12; read-out: LC50", "value": 6.61, "unit": "µM"},
      {"measurement": "GI50", "setting": "SW-620", "value": 1.87, "unit": "µM"},
      {"measurement": "CC50", "setting": "SW-620; read-out: LC50", "value": 6.48, "unit": "µM"},
      {"measurement": "GI50", "setting": "MALME-3M", "value": 1.76, "unit": "µM"},
      {"measurement": "GI50", "setting": "MDA-MB-435", "value": 1.74, "unit": "µM"},
      {"measurement": "CC50", "setting": "MDA-MB-435; read-out: LC50", "value": 5.78, "unit": "µM"},
      {"measurement": "GI50", "setting": "SK-MEL-2", "value": 1.38, "unit": "µM"},
      {"measurement": "CC50", "setting": "SK-MEL-2; read-out: LC50", "value": 5.6, "unit": "µM"},
      {"measurement": "GI50", "setting": "SK-MEL-28", "value": 1.73, "unit": "µM"},
      {"measurement": "CC50", "setting": "SK-MEL-28; read-out: LC50", "value": 5.64, "unit": "µM"},
      {"measurement": "GI50", "setting": "IGROV1", "value": 1.56, "unit": "µM"},
      {"measurement": "CC50", "setting": "IGROV1; read-out: LC50", "value": 6.29, "unit": "µM"},
      {"measurement": "GI50", "setting": "OVCAR-4", "value": 1.72, "unit": "µM"},
      {"measurement": "CC50", "setting": "OVCAR-4; read-out: LC50", "value": 8.19, "unit": "µM"},
      {"measurement": "GI50", "setting": "OVCAR-5", "value": 1.94, "unit": "µM"},
      {"measurement": "CC50", "setting": "OVCAR-5; read-out: LC50", "value": 7.25, "unit": "µM"},
      {"measurement": "GI50", "setting": "OVCAR-8", "value": 1.46, "unit": "µM"},
      {"measurement": "CC50", "setting": "OVCAR-8; read-out: LC50", "value": 6.59, "unit": "µM"},
      {"measurement": "GI50", "setting": "NCI/ADR-RES", "value": 4.33, "unit": "µM"},
      {"measurement": "CC50", "setting": "NCI/ADR-RES; read-out: LC50", "value": "> 100", "unit": "µM"},
      {"measurement": "GI50", "setting": "SK-OV-3", "value": 17.7, "unit": "µM"},
      {"measurement": "CC50", "setting": "SK-OV-3; read-out: LC50", "value": 57.9, "unit": "µM"},
      {"measurement": "GI50", "setting": "CAKI-1", "value": 2.3, "unit": "µM"},
      {"measurement": "CC50", "setting": "CAKI-1; read-out: LC50", "value": 24.8, "unit": "µM"},
      {"measurement": "GI50", "setting": "SN12C", "value": 1.74, "unit": "µM"},
      {"measurement": "CC50", "setting": "SN12C; read-out: LC50", "value": 7.2, "unit": "µM"},
      {"measurement": "GI50", "setting": "TK-10", "value": 2.09, "unit": "µM"},
      {"measurement": "CC50", "setting": "TK-10; read-out: LC50", "value": 7.16, "unit": "µM"},
      {"measurement": "GI50", "setting": "DU-145", "value": 1.8, "unit": "µM"},
      {"measurement": "CC50", "setting": "DU-145; read-out: LC50", "value": 6.34, "unit": "µM"},
      {"measurement": "GI50", "setting": "MCF7", "value": 1.51, "unit": "µM"},
      {"measurement": "CC50", "setting": "MCF7; read-out: LC50", "value": 6.1, "unit": "µM"},
      {"measurement": "GI50", "setting": "T-47D", "value": 1.52, "unit": "µM"},
      {"measurement": "CC50", "setting": "T-47D; read-out: LC50", "value": 7.29, "unit": "µM"}
    ]}
  ]
}
